≈ marks a conversion by molar mass, not a printed value. Like-named read-outs stand apart in the source and are kept apart here. Blank lines part the entries; values can stand above or below the molecule they belong to.
Assays:
[1] = tested on: Staphylococcus aureus (MRSA and MSSA strains); assay: Time kill assay, single agents at 1×MIC (CLSI); format: cell-based; conditions: 1×MIC
[2] = tested on: Staphylococcus aureus (MRSA and MSSA strains); assay: Synergy time-kill assay (6 hours, combination compared to most active single agent); format: cell-based; conditions: ½ MIC PlySs2 or ¼ MIC vancomycin alone, up to 6 hours
[3] = tested on: MRSA Staphylococcus aureus strain (MW2); assay: microbe, parasite or virus in culture; format: cell-based; conditions: for MIC: Staphylococcus aureus, MRSA, 600 h
S. aureus [4] = assay: Cell envelope binding of BODIPY-fluorescein-labeled antibiotics; format: cell-based
Procedure: As a complement to the synergy studies, daptomycin and vancomycin cell envelope-binding was examined using BODIPY-fluorescein-labeled antibiotics in the presence and absence of sub-MIC levels of CF-301. […] Similarly, cell wall-labeling with vancomycin occurs within 5 minutes in the presence of CF-301 (⅛^th MIC) versus 30 minutes without CF-301 (FIG. 20B). For both antibiotics, the labeling was first observed at bacterial division planes.

S. aureus [5] = assay: Murine bacteremia model, survival; format: in vivo, BALB/c mice; conditions: high challenge (10^9 CFU MRSA MW2), dosing at 2 hours; vancomycin 110 mg/kg twice daily, PlySs2 5.25 mg/kg (FIG. 27E)
Staphylococcus aureus = assay: MIC, broth microdilution (CLSI M07-A9); format: cell-based
[6] = DRSA (n = 8), with reducing agent

Compound: CN[C@H](CC(C)C)C(=O)N[C@H]1C(=O)N[C@@H](CC(N)=O)C(=O)N[C@H]2C(=O)N[C@H]3C(=O)N[C@H](C(=O)N[C@H](C(=O)O)c4cc(O)cc(O)c4-c4cc3ccc4O)[C@H](O)c3ccc(c(Cl)c3)Oc3cc2cc(c3O[C@@H]2O[C@H](CO)[C@@H](O)[C@H](O)[C@H]2O[C@H]2C[C@](C)(N)[C@H](O)[C@H](C)O2)Oc2ccc(cc2Cl)[C@H]1O [Vancomycin, vancomycin]
kill within 6 hours [1]: 2 log10
effectiveness alone at sub-MIC doses [2]: ineffective or poorly effective
MIC ([3]; read-out: vancomycin MIC, ending values, passaged with PlySs2 (8 ug/ml) plus vancomycin, 25 day): 4 µg/mL
MIC ([3]; read-out: vancomycin MIC, ending values, three vancomycin-only cultures, 25-day study): 16 µg/mL (≈ 11 µM)
antibiotic MIC, starting value ([3]; before serial passage): 1 µg/mL
increase of vancomycin MIC ([3]; passaged with PlySs2 (8 ug/ml) plus vancomycin): 2 to 4 fold
vancomycin MIC, ending values ([3]; passaged with PlySs2 (8 ug/ml) plus vancomycin, 25 day): 2 µg/mL
increase of vancomycin MIC ([3]; vancomycin-only cultures, 25-day study): 16 fold
time to cell wall-labeling with vancomycin (S. aureus [4]; in the presence of CF-301 (⅛^th MIC)): ≤ 5 min
time to cell wall-labeling with vancomycin (S. aureus [4]; without CF-301): 30 min
24 hour survival rate (S. aureus [5]): 20%
72 hour survival rate (S. aureus [5]): 3%
MIC90 (Staphylococcus aureus; [6]): 1
MIC90 [uM] (Staphylococcus aureus; [6]): 0.7 µM (≈ 1.01 µg/mL)
MIC90 (Staphylococcus aureus; LRSA (n = 5), with reducing agent): 1
MIC90 (Staphylococcus aureus; MRSA (n = 45), with reducing agent): 1
MIC90 (Staphylococcus aureus; MSSA (n-28), with reducing agent): 1
MIC90 (Staphylococcus aureus; Staphylococcus aureus): 0.7 µM (≈ 1.01 µg/mL)
MIC90 (Staphylococcus aureus; Staphylococcus aureus, MRSA): 0.7 µM (≈ 1.01 µg/mL)
MIC90 (Staphylococcus aureus; Staphylococcus aureus, MSSA): 0.7 µM (≈ 1.01 µg/mL)
MIC90 (Staphylococcus aureus; Staphylococcus aureus, VISA): 2.7 µM (≈ 3.91 µg/mL)
MIC90 (Staphylococcus aureus; Staphylococcus aureus, VRSA): > 10.6 µM
MIC90 (Staphylococcus aureus; VISA (n = 10), with reducing agent): 4
MIC90 (Staphylococcus aureus; VRSA (n = 14), with reducing agent): >16

MIC50/90 (Staphylococcus aureus; DRSA (n = 8)): 2
MIC50/90 [uM] (Staphylococcus aureus; DRSA (n = 8)): 5.7 µM (≈ 1.92 µg/mL)
MIC50/90 (Staphylococcus aureus; LRSA (n = 5)): >64
MIC50/90 [uM] (Staphylococcus aureus; LRSA (n = 5)): >183 µM
MIC50/90 (Staphylococcus aureus; MRSA (n = 45)): 2
MIC50/90 [uM] (Staphylococcus aureus; MRSA (n = 45)): 5.7 µM (≈ 1.92 µg/mL)
MIC50/90 (Staphylococcus aureus; MSSA (n-28)): 2
MIC50/90 [uM] (Staphylococcus aureus; MSSA (n-28)): 5.7 µM (≈ 1.92 µg/mL)
MIC50/90 (Staphylococcus aureus; VISA (n = 10)): 2
MIC50/90 [uM] (Staphylococcus aureus; VISA (n = 10)): 5.7 µM (≈ 1.92 µg/mL)
MIC50/90 (Staphylococcus aureus; VRSA (n = 14)): 2
MIC50/90 [uM] (Staphylococcus aureus; VRSA (n = 14)): 5.7 µM (≈ 1.92 µg/mL)
Compound: CC(=O)NC[C@H]1CN(c2ccc(N3CCOCC3)c(F)c2)C(=O)O1 [Linezolid]
